For the experiment, the system named is VSV pseudotype virus carrying the SARS-CoV-2 Spike protein. In kind it is cell-based.

The values that follow come from US20230241014A1, “MEK-INHIBITORS FOR THE TREATMENT OR PREVENTION OF CORONAVIRUS INFECTIONS AND/OR COVID-19 CYTOKINE STORM” (priority 2020, published 2023).

For `O=C(NOCC1CC1)c1ccc(F)c(F)c1Nc1ccc(I)cc1Cl` [CI-1040, reference compound], the “internalization of the VSV pseudotype virus (GFP positive cells)” value is “reduction in the internalization”.
